# Assays:
# [1] = system: A549-wild type (wt) cells; assay: Aβ-related peptide production in culture supernatant of A549-wt cells by IP-MS (Example 1); assay type: cell-based, human; conditions: 25 μM, 96 hours, compared with DMSO control
# Method: After the antigen antibody reaction, the antibody immobilized beads were washed with a first washing buffer [washed once with 100 μL of the first washing buffer (0.1% DDM, 0.1% NTM, 50 mM Tris-HCl (pH 7.4) and 150 mM NaCl), and then once with 50 μL of a 50 mM ammonium acetate buffer]. Thereafter, the Aβ-related peptide captured by the antibody immobilized beads was eluted with a glycine buffer containing DDM (50 mM glycine buffer containing 0.1% of DDM, pH 2.8). To the thus obtained eluate, Tris buffer containing DDM [800 mM GlcNAc, 0.2% (w/v) DDM, 300 mM NaCl, and 300 mM Tris-HCl buffer (pH 7.4)] was added to restore the pH to neutral (pH 7.4). Thereafter, the neutral eluate was contacted with the antibody immobilized beads at 4° C. for 1 hour again to cause the antigen antibody reaction of the Aβ-related peptide. The resultant was washed with a second washing buffer [washed twice with 100 μL of the second washing buffer (0.1% DDM, 150 mM Tris-HCl (pH 7.4), and 150 mM NaCl), and once with 50 μL of a 50 mM ammonium acetate buffer], and then, the Aβ-related peptide captured by the antibody immobilized beads was eluted with an eluent (5 mM HCl, 0.1 mM methionine, and 70% (v/v) acetonitrile). In this manner, each eluate containing the Aβ-related peptide was obtained through two-stage IP operation. […]
# A549-ADAMTS4 KO cells = assay: Aβ-related peptide production in culture supernatant of A549-ADAMTS4 KO cells by IP-MS (Example 1); assay type: cell-based, human; conditions: 25 μM, 96 hours, compared with DMSO control
# Method: In A549 cells, an influence on production of APP669-x caused by ADAMTS4 knockout using CRISPR/Cas9 (clustered regularly interspaced short palindromic repeats/CRISPR associated proteins) and guide RNA (gRNA), and a treatment with GM6001, a metalloprotease inhibitor, was evaluated. A549 cell is human adenocarcinomic alveolar basal epithelial cell. The gRNA was designed using CRISPR Search (https://www.sanger.ac.uk/htgt/wge/find_crisprs).
# Vectors in which cDNAs respectively encoding paired gRNAs targeting ADAMTS4 were inserted respectively into vector px335 (Addgene 042335) expressing SpCas9 nickase and gRNA and retrovirus-derived vector pBabe Puro U6 BbsI (donated by Professor Dario Alessi, Dundee University) were constructed.
# These vectors were transfected, and the resultant transfectants were subjected to selection with puromycin for monocloning. A genome was extracted from each monoclonal cell, and a genome fragment including a gene region targeted by gRNA was amplified by PCR to be subjected to sanger sequencing. Primers used for amplifying the genome fragment were as follows: […]
# As a result of analysis of a plurality of monoclonal cells, it was presumed that ADAMTS4 gene region of A549 cell has three alleles. Then, a monoclonal cell respectively having deletion of 16 bp, 29 bp and 20 bp in the gene region of ADAMTS4 gene as shown in FIG. 2 was obtained. Since none of these is a multiple of 3, it is presumed that normal ADAMTS4 protein is not expressed. Therefore, it was regarded that this cell is A549 cell having endogenous ADAMTS4 knockout (KO) (A549-ADAMTS4 KO cell).
# A metalloprotease inhibitor, GM6001 (25 μM), or dimethylsulfoxide (DMSO) used as a control was added to each of A549-ADAMTS4 KO cells and A549-wild type (wt) cells, and the resultant cells were incubated for 96 hours. Thereafter, a culture supernatant was collected, and stored at −80° C. until measurement.
# (§1) An Aβ-related peptide contained in the culture supernatant was measured by IP-MS corresponding to a combination of immunoprecipitation (IP) and mass spectrometry (MS). In IP, antibody immobilized beads obtained by covalent binding of anti-Aβ antibody clone 6E10 (BioLegend) to Dynabeads Epoxy (Thermo Fisher Scientific) were used.
# The cryopreserved culture supernatant was thawed, and 250 μL of a reaction liquid containing internal standard peptides [800 mM GlcNAc, 0.2/a (w/v) NTM, 0.2% (w/v) DDM, 300 mM NaCl, and 100 mM Tris-HCl buffer (pH 7.4)] was mixed with 250 μL of the culture supernatant. The thus obtained mixture was mixed with the antibody immobilized beads, followed by an antigen antibody reaction at 4° C. for 1 hour. As the internal standard peptides, 22 μM stable isotope labeled Aβ1-38 and 100 μM stable isotope labeled A31-15 were used. […]
# [2] = system: human neuroblastoma BE(2)-C; assay: Aβ-related peptide production in culture supernatant of BE(2)-C cells by IP-MS (Example 4); assay type: cell-based; conditions: for APP669 cleavage activity (on the N-terminal side): conclusion from BE(2)-C and A549 cells
# Method: as §1
# (§2) The cryopreserved culture supernatant was thawed, and 250 μL of a reaction liquid containing internal standard peptides [800 mM GlcNAc, 0.2/a (w/v) NTM, 0.2% (w/v) DDM, 300 mM NaCl, and 100 mM Tris-HCl buffer (pH 7.4)] was mixed with 250 μL of the culture supernatant. The thus obtained mixture was mixed with the antibody immobilized beads, followed by an antigen antibody reaction at 4° C. for 1 hour. As the internal standard peptides, 22 μM stable isotope labeled Aβ1-38 and 100 μM stable isotope labeled A31-15 were used.
# (§3) After the antigen antibody reaction, the antibody immobilized beads were washed with a first washing buffer [washed once with 100 μL of the first washing buffer (0.1% DDM, 0.1% NTM, 50 mM Tris-HCl (pH 7.4) and 150 mM NaCl), and then once with 50 μL of a 50 mM ammonium acetate buffer]. Thereafter, the Aβ-related peptide captured by the antibody immobilized beads was eluted with a glycine buffer containing DDM (50 mM glycine buffer containing 0.1% of DDM, pH 2.8). To the thus obtained eluate, Tris buffer containing DDM [800 mM GlcNAc, 0.2% (w/v) DDM, 300 mM NaCl, and 300 mM Tris-HCl buffer (pH 7.4)] was added to restore the pH to neutral (pH 7.4). Thereafter, the neutral eluate was contacted with the antibody immobilized beads at 4° C. for 1 hour again to cause the antigen antibody reaction of the Aβ-related peptide. The resultant was washed with a second washing buffer [washed twice with 100 μL of the second washing buffer (0.1% DDM, 150 mM Tris-HCl (pH 7.4), and 150 mM NaCl), and once with 50 μL of a 50 mM ammonium acetate buffer], and then, the Aβ-related peptide captured by the antibody immobilized beads was eluted with an eluent (5 mM HCl, 0.1 mM methionine, and 70% (v/v) acetonitrile). In this manner, each eluate containing the Aβ-related peptide was obtained through two-stage IP operation.
# (§4) As a matrix for linear TOF, α-cyano-4-hydroxycinnamic acid (CHCA) was used. A matrix solution was prepared by dissolving 1 mg of CHCA in 1 mL of 70% (v/v) acetonitrile. As a matrix additive, 0.4% (w/v) methylenediphosphonic acid (MDPNA) was used. A 1 mg/mL CHCA solution and 0.4% (w/v) MDPNA were mixed in equivalent amounts to obtain a matrix/matrix additive solution [0.5 mg/mL CHCA/0.2% (w/v) MDPNA].
# (§5) Precedently, 0.5 μL of the matrix/matrix additive solution was added in a dropwise manner into respective wells of μFocus MALDI Plate™ 900 μm (Hudson Surface Technology, Inc., Fort Lee, NJ), and then dried.
# (§6) Each eluate resulting from IP was added in a dropwise manner into 4 wells of the μFocus MALDI Plate™ 900 μm, and then dried.
# (§7) Mass spectral data was obtained by linear TOF in the positive ion mode using AXIMA Performance (Shimadzu/KRATOS, Manchester, UK). An m/z value of linear TOF was indicated as an average mass of peaks. The m/z value was calibrated using, as external standards, human angiotensin II, human ACTH fragment 18-39, bovine insulin oxidized beta-chain, and bovine insulin.
# (§8) In the mass spectrum, signal intensity of each Aβ-related peptide was normalized using an internal standard peptide. Thereafter, an average of four normalized intensities obtained from one sample was obtained, which was evaluated as a production amount of the Aβ-related peptide. When there were two or more data not reaching a lower detection limit (S/N<3), it was regarded as undetectable.
# (§9) A metalloprotease inhibitor, 25 μM GM6001 (Cosmobio) or 10 μM INCB3619 (NPL 8), was caused to act on, or DMSO was added as a control to human neuroblastoma BE(2)-C and adenocarcinomic human alveolar basal epithelial cell A549, and the resultant cells were incubated for 96 hours. […]
# [3] = system: adenocarcinomic human alveolar basal epithelial cell A549; assay: Aβ-related peptide production in culture supernatant of A549 cells by IP-MS (Example 4); assay type: cell-based; conditions: 96 hours, DMSO control
# Method: as §1, §2, §3, §4, §5, §6, §7, §8, §9
# APP stable HEK cells = assay: Aβ-related peptide production in culture supernatant of APP stable HEK cells by IP-MS (Example 4); assay type: cell-based, human; conditions: 25 μM
# Method: As a matrix for linear TOF, α-cyano-4-hydroxycinnamic acid (CHCA) was used. A matrix solution was prepared by dissolving 1 mg of CHCA in 1 mL of 70% (v/v) acetonitrile. As a matrix additive, 0.4% (w/v) methylenediphosphonic acid (MDPNA) was used. […]
# In the mass spectrum, signal intensity of each Aβ-related peptide was normalized using an internal standard peptide. Thereafter, an average of four normalized intensities obtained from one sample was obtained, which was evaluated as a production amount of the Aβ-related peptide. […]
# [4] = BE(2)-C cells, 25 μM, 96 hours, DMSO control
# [5] = BE(2)-C cells, 10 μM, 96 hours, DMSO control
smiles,measurement,setting,value
CNC(=O)[C@H](Cc1c[nH]c2ccccc12)NC(=O)[C@@H](CC(=O)NO)CC(C)C [GM6001],production amount of APP669-709 (Aβ(−3-38)),[1],tended to be decreased to substantially a half
same,production amount of APP669-711 (Aβ(−3-40)),[1],tended to be decreased to substantially a half
same,production amount of Aβ1-38,[1],tended to be rather increased
same,production amount of Aβ1-40,[1],tended to be rather increased
same,production amount of APP669-709 (Aβ(−3-38)),A549-ADAMTS4 KO cells,tended to be decreased to substantially a half
same,production amount of APP669-711 (Aβ(−3-40)),A549-ADAMTS4 KO cells,tended to be decreased to substantially a half
same,production amount of Aβ1-38,A549-ADAMTS4 KO cells,tended to be rather increased
same,production amount of Aβ1-40,A549-ADAMTS4 KO cells,tended to be rather increased
same,production amount of APP669-709 (Aβ(3-38)),[2]; [4],decreased
same,production amount of APP669-711 (Aβ(−3-40)),[2]; [4],decreased
same,production amount of Aβ1-38,[2]; [4],not decreased
same,production amount of Aβ1-40,[2]; [4],not decreased
same,APP669 cleavage activity (on the N-terminal side),[2]; 25 μM,decreases
same,production amount of APP669-709 (Aβ(3-38)),[3]; 25 μM,decreased
same,production amount of APP669-711 (Aβ(−3-40)),[3]; 25 μM,decreased
same,production amount of Aβ1-38,[3]; 25 μM,not decreased
same,production amount of Aβ1-40,[3]; 25 μM,not decreased
same,production amount of APP669-709 (Aβ(3-38)),APP stable HEK cells,decreased
same,production amount of APP669-711 (Aβ(−3-40)),APP stable HEK cells,decreased
same,production amount of Aβ1-38,APP stable HEK cells,not decreased
same,production amount of Aβ1-40,APP stable HEK cells,not decreased
COC(=O)N1CC2(CC2)C[C@H](C(=O)NO)[C@H]1C(=O)N1CC=C(c2ccccc2)CC1 [INCB3619],production amount of APP669-709 (Aβ(3-38)),[2]; [5],rather slightly decreased
same,production amount of APP669-711 (Aβ(−3-40)),[2]; [5],rather slightly decreased
same,APP669 cleavage activity (on the N-terminal side),[2]; 10 μM,low effect of decreasing
same,production amount of APP669-709 (Aβ(3-38)),[3]; 10 μM,not changed
same,production amount of APP669-711 (Aβ(−3-40)),[3]; 10 μM,not changed
